Measured values published in patent US5945438A, “Triazole derivative and pharmaceutical comprising the same as an effective ingredient” (SS Pharmaceutical Co., Ltd., priority 1995, dated 1999).
Converted amounts (≈) assume the structure as drawn. Read-outs that look alike come from different tables or passages of the source.

Assays:
A. fumigatus IFM 40808 = assay: In vitro antifungal activity against Aspergillus fumigatus; type: cell-based; details: RPMI MEDIUM 1640, pH 7, 3.0×10^4 cells/ml, 35° C.; for MIC: Aspergillus fumigatus, read-out: Minimum inhibitory concentration
Protocol: In vitro antifungal activity against Aspergillus fumigatus
Incubation was then conducted at 35° C. for 24 hours.

C. albicans ATCC 44859 = assay: In vitro antifungal activity against Candida albicans; type: cell-based; details: C. albicans controlled to a yeast-type (no hyphal growth), Eagle's MEM medium with 10% serum, 2.0×10^4 cells/ml, 37° C.; for MIC: Candida albicans, read-out: Minimum inhibitory concentration
Protocol: In vitro antifungal activity against Candida albicans
Incubation was then conducted at 37° C. for 20 hours using a CO2 gas incubator.

[1] = IFM40808, 24 h, pH 7, growth of about 75% of hyphae inhibited
[2] = growth of about 75% of hyphae inhibited, 24 hours

MIC (A. fumigatus IFM 40808; [1]) [µg/mL]	MIC (C. albicans ATCC 44859; ATCC44859, 20 h) [µg/mL]	SMILES	Minimum inhibitory concentration (C. albicans ATCC 44859; 20 hours) [µg/mL]	further results
4 (≈ 12.4 µM)	0.0078 (≈ 0.0243 µM)	CSC(F)(F)C(O)(Cn1cncn1)c1ccc(F)cc1F (racemic) [Compound(1a-1), 3,3-difluoro-2-(2',4'-difluorophenyl)-3-methylthio-1-(1H-1,2,4-triazol-1-yl)propan-2-ol]	–	–
16 (≈ 45.3 µM)	0.0156 (≈ 0.0442 µM)	CSC(F)(F)C(O)(Cn1cncn1)c1ccc(C(F)(F)F)cc1 (stereo not drawn) [Compound(1a-4), 3,3-difluoro-3-methylthio-1-(1H-1,2,4-triazol-1-yl)-2-[4'-(trifluoromethyl)phenyl]propan-2-ol]	–	–
32 (≈ 90.6 µM)	0.0625 (≈ 0.177 µM)	CS(=O)(=O)C(F)(F)C(O)(Cn1cncn1)c1ccc(F)cc1F (stereo not drawn) [Compound (1c-1), 3,3-difluoro-2-(2',4'-difluorophenyl)-3-methylsulfonyl-1-(1H-1,2,4-triazol-1-yl)propan-2-ol]	–	–
16 (≈ 52.8 µM)	0.0625 (≈ 0.206 µM)	CSC(F)(F)C(O)(Cn1cncn1)c1ccc(F)cc1 (stereo not drawn) [Compound(1a-2), 3,3-difluoro-2-(4'-fluorophenyl)-3-methylthio-1-(1H-1,2,4-triazol-1-yl)propan-2-ol]	–	–
16 (≈ 56.1 µM)	0.125 (≈ 0.438 µM)	CSC(F)(F)C(O)(Cn1cncn1)c1ccccc1 (stereo not drawn) [Compound(1a-5), 3,3-difluoro-3-methylthio-2-phenyl-1-(1H-1,2,4-triazol-1-yl)propan-2-ol]	–	–
64 (≈ 190 µM)	–	C[S+]([O-])C(F)(F)C(O)(Cn1cncn1)c1ccc(F)cc1F (single isomer, unassigned) [Compound(1b-1A), 3,3-difluoro-2-(2',4'-difluorophenyl)-3-methylsulfinyl-1-(1H-1,2,4-triazol-1-yl)propan-2-ol]	0.0625 (≈ 0.185 µM)	–
32 (≈ 82.9 µM)	0.0313 (≈ 0.081 µM)	CS(=O)(=O)C(F)(F)C(O)(Cn1cncn1)c1ccc(Cl)cc1Cl (stereo not drawn) [Compound(1c-3), 2-(2',4'-dichlorophenyl)-3,3-difluoro-3-methylsulfonyl-1-(1H-1,2,4-triazol-1-yl)propan-2-ol]	–	–
2 (≈ 5.65 µM)	0.0039 (≈ 0.011 µM)	CSC(F)(F)C(O)(Cn1cncn1)c1ccc(Cl)cc1Cl (racemic) [Compound(1a-3), 2-(2',4'-dichlorophenyl)-3,3-difluoro-3-methylthio-1-(1H-1,2,4-triazol-1-yl)propan-2-ol]	–	–

Continued, compound first:

SMILES	MIC (A. fumigatus IFM 40808; [1]) [µg/mL]	MIC (C. albicans ATCC 44859; ATCC44859, 20 h) [µg/mL]	Minimum inhibitory concentration (C. albicans ATCC 44859; 20 hours) [µg/mL]	further results
OC(Cn1cncn1)(Cn1cncn1)c1ccc(F)cc1F [Fluconazole, reference compound]	–	–	–	MIC (A. fumigatus IFM 40808; IFM40808, growth of about 75% of hyphae inhibited, 24 hours): > 64 µg/mL; MIC (C. albicans ATCC 44859; ATCC44859, 20 hours): 0.25 µg/mL (≈ 0.816 µM)
CS(=O)(=O)C(F)(F)C(O)(Cn1cncn1)c1ccccc1 (stereo not drawn) [Compound(1c-5), 3,3-difluoro-3-methylsulfonyl-2-phenyl-1-(1H-1,2,4-triazol-1-yl)propan-2-ol]	> 64	0.5 (≈ 1.58 µM)	–	–
CS(=O)(=O)C(F)(F)C(O)(Cn1cncn1)c1ccc(F)cc1F (single isomer, unassigned; (+)) [(+)-Compound(1c-1), (+)-3,3-difluoro-2-(2',4'-difluorophenyl)-3-methylsulfonyl-1-(1H-1,2,4-triazol-1-yl)propan-2-ol]	–	–	> 1	Minimum inhibitory concentration (A. fumigatus IFM 40808; [2]): > 64 µg/mL
CS(=O)(=O)C(F)(F)C(O)(Cn1cncn1)c1ccc(Cl)cc1Cl (single isomer, unassigned; (-)) [(-)-Compound(1c-3), (-)-2-(2',4'-dichlorophenyl)-3,3-difluoro-3-methylsulfonyl-1-(1H-1,2,4-triazol-1-yl)propan-2-ol]	32 (≈ 82.9 µM)	–	0.0078 (≈ 0.0202 µM)	–
CS(=O)(=O)C(F)(F)C(O)(Cn1cncn1)c1ccc(Cl)cc1Cl (single isomer, unassigned; (+)) [(+)-Compound(1c-3), (+)-2-(2',4'-dichlorophenyl)-3,3-difluoro-3-methylsulfonyl-1-(1H-1,2,4-triazol-1-yl)propan-2-ol]	–	–	> 1	Minimum inhibitory concentration (A. fumigatus IFM 40808; [2]): > 64 µg/mL
CS(=O)(=O)C(F)(F)C(O)(Cn1cncn1)c1ccc(F)cc1F (single isomer, unassigned; (-)) [(-)-Compound(1c-1), (-)-3,3-difluoro-2-(2',4'-difluorophenyl)-3-methylsulfonyl-1-(1H-1,2,4-triazol-1-yl)propan-2-ol]	–	–	0.0313 (≈ 0.0886 µM)	Minimum inhibitory concentration (A. fumigatus IFM 40808; [2]): 16 µg/mL (≈ 45.3 µM)
CS(=O)(=O)C(F)(F)C(O)(Cn1cncn1)c1ccc(C(F)(F)F)cc1 (single isomer, unassigned; (+)) [(+)-Compound(1c-4), (+)-3,3-difluoro-3-methylsulfonyl-1-(1H-1,2,4-triazol-1-yl)-2-[4'-(trifluoromethyl)phenyl]propan-2-ol]	> 64	–	> 1	–
CS(=O)(=O)C(F)(F)C(O)(Cn1cncn1)c1ccc(F)cc1 (single isomer, unassigned; (+)) [(+)-Compound(1c-2), (+)-3,3-difluoro-2-(4'-fluorophenyl)-3-methylsulfonyl-1-(1H-1,2,4-triazol-1-yl)propan-2-ol]	> 64	–	> 1	–
CS(=O)(=O)C(F)(F)C(O)(Cn1cncn1)c1ccc(C(F)(F)F)cc1 (racemic) [Compound(1c-4), 3,3-difluoro-3-methylsulfonyl-1-(1H-1,2,4-triazol-1-yl)-2-[4'-(trifluoromethyl)phenyl]propan-2-ol]	> 64	0.125 (≈ 0.324 µM)	–	–
CS(=O)(=O)C(F)(F)C(O)(Cn1cncn1)c1ccc(C(F)(F)F)cc1 (single isomer, unassigned; (-)) [(-)-Compound(1c-4), (-)-3,3-difluoro-3-methylsulfonyl-1-(1H-1,2,4-triazol-1-yl)-2-(4'-(trifluoromethyl)phenyl]propan-2-ol]	–	–	0.0625 (≈ 0.162 µM)	Minimum inhibitory concentration (A. fumigatus IFM 40808; [2]): > 64 µg/mL
CS(=O)(=O)C(F)(F)C(O)(Cn1cncn1)c1ccc(F)cc1 (single isomer, unassigned; (-)) [(-)-Compound(1c-2), (-)-3,3-difluoro-2-(4'-fluorophenyl)-3-methylsulfonyl-1-(1H-1,2,4-triazol-1-yl)propan-2-ol]	–	–	0.0625 (≈ 0.186 µM)	Minimum inhibitory concentration (A. fumigatus IFM 40808; [2]): 64 µg/mL (≈ 191 µM)
C[S+]([O-])C(F)(F)C(O)(Cn1cncn1)c1ccc(F)cc1F (single isomer, unassigned) [Compound(1b-1B), 3,3-difluoro-2-(2',4'-difluorophenyl)-3-methylsulfinyl-1-(1H-1,2,4-triazol-1-yl)propan-2-ol]	–	–	0.5 (≈ 1.48 µM)	Minimum inhibitory concentration (A. fumigatus IFM 40808; [2]): > 64 µg/mL
CS(=O)(=O)C(F)(F)C(O)(Cn1cncn1)c1ccc(F)cc1 (racemic) [Compound(1c-2), 3,3-difluoro-2-(4'-fluorophenyl)-3-methylsulfonyl-1-(1H-1,2,4-triazol-1-yl)propan-2-ol]	> 64	0.25 (≈ 0.746 µM)	–	–
